Literature values, collected in patent US4738979A, “α2 -blocking derivatives of imidazole” (G. D. Searle & Co., priority 1985, dated 1988).

Tested on: α2 -adrenergic receptors
Settings: cited from earlier work

SMILES	selectivity (in words)	side-effects (in words)
COC(=O)[C@H]1[C@H]2C[C@H]3c4[nH]c5ccccc5c4CCN3C[C@H]2CC[C@@H]1O [rauwolscine]	lack selectivity	numerous side-effects
COC(=O)[C@@H]1[C@H]2C[C@H]3c4[nH]c5ccccc5c4CCN3C[C@@H]2CC[C@@H]1O [yohimbine]	lack selectivity	numerous side-effects
